From patent publication US20020137929A1, “1 - (3-heterocyclylphenyl) isothiourea, -isourea, -guanidine and -amidine herbicidal agents” (Intellectual Property Department, BASF Aktiengesellschaft, priority 1998, published 2002)

Columns and labels:
CASOB (Sicklepod) = assay: Postemergence herbicidal evaluation; type: in vivo, Cassia obtusifolia; details: postemergence
Outline: (§1)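 Rate range approx. 0.0156–0.500 kg/ha. Foliar application at 40 psi to ~2-week seedlings; surfactant 0.5% TWEEN 20 in 50/50 acetone/water. Evaluation 4–5 wk post-treatment by 0–9 visual injury score, means of replicate tests.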

GALAP (Galium) = assay: Postemergence herbicidal evaluation; type: in vivo, Galium aparine; details: postemergence
Outline: as §1

ZEAMX (Corn, Field) [1] = assay: Postemergence herbicidal evaluation; type: in vivo, Zea mays; details: postemergence
Outline: as §1

AMBEL (Ragweed, Common) = assay: Preemergence herbicidal evaluation; type: in vivo, Ambrosia artemisifolia; details: rated 4-5 weeks after treatment
Outline: (§2)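 Scores use a 0–9 visual scale covering stand, vigor, malformation, size and chlorosis relative to controls, rated four to five weeks after treatment. Before emergence, soil-planted seeds were sprayed with compound in aqueous acetone at roughly 0.0156–0.500 kg/ha and held in the greenhouse.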

[2] = system: CHEAL (Lambsquarters, Common); assay: Preemergence herbicidal evaluation; type: in vivo, Chenopodium album; details: rated 4-5 weeks after treatment
Outline: as §2

[3] = system: IPOHE (Morningglory, Ivyleaf); assay: Preemergence herbicidal evaluation; type: in vivo, Ipomoea hederacea; details: rated 4-5 weeks after treatment
Outline: as §2

ORYSAT (Rice, Tebonnet) = assay: Preemergence herbicidal evaluation; type: in vivo, Oryza sativa, (L.) Tebonnet; details: rated 4-5 weeks after treatment
Outline: as §2

[4] = system: TRZAWR (Wheat, Winter, cv Riband); assay: Preemergence herbicidal evaluation; type: in vivo, Triticum aestivum; details: rated 4-5 weeks after treatment
Outline: as §2

ZEAMX (Corn, Field) [5] = assay: Preemergence herbicidal evaluation; type: in vivo, Zea mays; details: rated 4-5 weeks after treatment
Outline: as §2

[6] = system: ECHORC (Watergrass (Calif.)); assay: Preemergence weed control under flooded paddy conditions; type: in vivo, Echinochloa oryzoides; details: rated 3-4 weeks after treatment
Outline: (§3)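 Visual injury scored 0-9 against control three to four weeks post-treatment, greenhouse-grown. Application: acetone/water (50/50) solutions dosed directly into flood water (1.5-3 cm over silt loam, planted top 0.5 cm), roughly 0.0313 to 0.500 kg/ha active ingredient.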

CYPIR (Rice Flatsedge) = assay: as above; type: in vivo, Cyperus iria; details: rated 3-4 weeks after treatment
Outline: as §3

CYPSE (Flatsedge) = assay: as above; type: in vivo, Cyperus serotinus; details: rated 3-4 weeks after treatment
Outline: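 Seeds or propagules sown in top 0.5 cm of silt loam soil, flooded 1.5 to 3 cm above surface throughout. Compound in 50/50 v/v aqueous/acetone pipetted into flood water at about 0.0313 to 0.500 kg/ha. Visual 0-9 rating versus control after three to four weeks in greenhouse.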

CCOC(=O)CN1C(=O)C(SC)SC1=Nc1cc(-n2c(=O)cc(C(F)(F)F)n(C)c2=O)c(F)cc1Cl (stereo not drawn) [Compound 125, Ethyl 2-{{2-chloro-5-[3,6-dihydro-3-methyl-2,6-dioxo-4-(trifluoromethyl)-1(2H)-pyrimidinyl]-4-fluorophenyl}imino}-5-(methylthio)-4-oxo-3-thiazolidineacetate]
5.0: herbicidal rating GALAP (GALAP (Galium); rate 0.0625 kg/ha) | Preemergence herbicidal rating TRZAWR ([4]; rate 0.5000 kg/ha)
1.0: herbicidal rating CASOB (CASOB (Sicklepod); rate 0.0156 kg/ha) | herbicidal rating GALAP (GALAP (Galium); rate 0.0156 kg/ha) | Preemergence herbicidal rating ORYSAT (ORYSAT (Rice, Tebonnet); rate 0.0625 kg/ha) | Preemergence herbicidal rating ORYSAT (ORYSAT (Rice, Tebonnet); rate 0.1250 kg/ha) | Preemergence herbicidal rating TRZAWR ([4]; rate 0.0625 kg/ha) | Preemergence herbicidal rating TRZAWR ([4]; rate 0.1250 kg/ha)
2.0: herbicidal rating CASOB (CASOB (Sicklepod); rate 0.0313 kg/ha) | herbicidal rating CASOB (CASOB (Sicklepod); rate 0.0625 kg/ha) | herbicidal rating GALAP (GALAP (Galium); rate 0.0313 kg/ha) | herbicidal effect rating, ECHORC ([6]; 0.0313 kg/ha) | herbicidal effect rating, CYPSE (CYPSE (Flatsedge); 0.0313 kg/ha)
8.0: herbicidal rating ZEAMX (ZEAMX (Corn, Field) [1]; rate 0.0625 kg/ha)
9.0: Preemergence herbicidal rating AMBEL (AMBEL (Ragweed, Common); rate 0.0625 kg/ha) | Preemergence herbicidal rating AMBEL (AMBEL (Ragweed, Common); rate 0.1250 kg/ha) | Preemergence herbicidal rating AMBEL (AMBEL (Ragweed, Common); rate 0.2500 kg/ha) | Preemergence herbicidal rating AMBEL (AMBEL (Ragweed, Common); rate 0.5000 kg/ha) | Preemergence herbicidal rating CHEAL ([2]; rate 0.0156 kg/ha) | Preemergence herbicidal rating CHEAL ([2]; rate 0.0313 kg/ha) | Preemergence herbicidal rating CHEAL ([2]; rate 0.0625 kg/ha) | Preemergence herbicidal rating CHEAL ([2]; rate 0.1250 kg/ha) | Preemergence herbicidal rating CHEAL ([2]; rate 0.2500 kg/ha) | Preemergence herbicidal rating CHEAL ([2]; rate 0.5000 kg/ha) | Preemergence herbicidal rating IPOHE ([3]; rate 0.2500 kg/ha) | Preemergence herbicidal rating IPOHE ([3]; rate 0.5000 kg/ha) | herbicidal effect rating, CYPIR (CYPIR (Rice Flatsedge); 0.2500 kg/ha) | herbicidal effect rating, CYPSE (CYPSE (Flatsedge); 0.1250 kg/ha) | herbicidal effect rating, CYPSE (CYPSE (Flatsedge); 0.2500 kg/ha)
7.3: herbicidal rating ZEAMX (ZEAMX (Corn, Field) [1]; rate 0.0313 kg/ha)
6.0: Preemergence herbicidal rating AMBEL (AMBEL (Ragweed, Common); rate 0.0313 kg/ha) | Preemergence herbicidal rating ZEAMX (ZEAMX (Corn, Field) [5]; rate 0.1250 kg/ha) | herbicidal effect rating, CYPIR (CYPIR (Rice Flatsedge); 0.0625 kg/ha)
6.7: herbicidal rating ZEAMX (ZEAMX (Corn, Field) [1]; rate 0.0156 kg/ha)
0.0: Preemergence herbicidal rating AMBEL (AMBEL (Ragweed, Common); rate 0.0156 kg/ha) | Preemergence herbicidal rating IPOHE ([3]; rate 0.0156 kg/ha) | Preemergence herbicidal rating IPOHE ([3]; rate 0.0313 kg/ha) | Preemergence herbicidal rating ORYSAT (ORYSAT (Rice, Tebonnet); rate 0.0156 kg/ha) | Preemergence herbicidal rating ORYSAT (ORYSAT (Rice, Tebonnet); rate 0.0313 kg/ha) | Preemergence herbicidal rating TRZAWR ([4]; rate 0.0156 kg/ha) | Preemergence herbicidal rating TRZAWR ([4]; rate 0.0313 kg/ha) | Preemergence herbicidal rating ZEAMX (ZEAMX (Corn, Field) [5]; rate 0.0156 kg/ha) | Preemergence herbicidal rating ZEAMX (ZEAMX (Corn, Field) [5]; rate 0.0313 kg/ha)
3.0: Preemergence herbicidal rating ZEAMX (ZEAMX (Corn, Field) [5]; rate 0.0625 kg/ha) | herbicidal effect rating, CYPIR (CYPIR (Rice Flatsedge); 0.0313 kg/ha)
4.0: Preemergence herbicidal rating IPOHE ([3]; rate 0.0625 kg/ha) | Preemergence herbicidal rating IPOHE ([3]; rate 0.1250 kg/ha) | Preemergence herbicidal rating ORYSAT (ORYSAT (Rice, Tebonnet); rate 0.2500 kg/ha) | Preemergence herbicidal rating ORYSAT (ORYSAT (Rice, Tebonnet); rate 0.5000 kg/ha) | Preemergence herbicidal rating TRZAWR ([4]; rate 0.2500 kg/ha) | herbicidal effect rating, ECHORC ([6]; 0.0625 kg/ha) | herbicidal effect rating, CYPSE (CYPSE (Flatsedge); 0.0625 kg/ha)
7.0: Preemergence herbicidal rating ZEAMX (ZEAMX (Corn, Field) [5]; rate 0.2500 kg/ha) | Preemergence herbicidal rating ZEAMX (ZEAMX (Corn, Field) [5]; rate 0.5000 kg/ha) | herbicidal effect rating, ECHORC ([6]; 0.1250 kg/ha) | herbicidal effect rating, ECHORC ([6]; 0.2500 kg/ha) | herbicidal effect rating, CYPIR (CYPIR (Rice Flatsedge); 0.1250 kg/ha)

CCOC(=O)CN1C(=O)C(Cl)SC1=Nc1cc(-n2c(=O)cc(C(F)(F)F)n(C)c2=O)c(F)cc1Cl (stereo not drawn) [Compound 126, Ethyl 5-chloro-2-{{2-chloro-5-[3,6-dihydro-3-methyl-2,6-dioxo-4-(trifluoromethyl)-1(2H)-pyrimidinyl]-4-fluorophenyl}imino}-4-oxo-3-thiazolidineacetate]
3.0: herbicidal rating GALAP (GALAP (Galium); rate 0.1250 kg/ha) | Preemergence herbicidal rating ORYSAT (ORYSAT (Rice, Tebonnet); rate 0.5000 kg/ha) | herbicidal effect rating, ECHORC ([6]; 0.0625 kg/ha)
5.0: Preemergence herbicidal rating AMBEL (AMBEL (Ragweed, Common); rate 0.5000 kg/ha)
2.0: herbicidal rating CASOB (CASOB (Sicklepod); rate 0.0625 kg/ha) | Preemergence herbicidal rating ZEAMX (ZEAMX (Corn, Field) [5]; rate 0.1250 kg/ha) | herbicidal effect rating, CYPIR (CYPIR (Rice Flatsedge); 0.2500 kg/ha)
4.5: herbicidal rating ZEAMX (ZEAMX (Corn, Field) [1]; rate 0.0625 kg/ha)
1.0: Preemergence herbicidal rating IPOHE ([3]; rate 0.1250 kg/ha) | Preemergence herbicidal rating IPOHE ([3]; rate 0.2500 kg/ha)
4.0: herbicidal rating CASOB (CASOB (Sicklepod); rate 0.1250 kg/ha) | herbicidal rating ZEAMX (ZEAMX (Corn, Field) [1]; rate 0.0156 kg/ha) | herbicidal rating ZEAMX (ZEAMX (Corn, Field) [1]; rate 0.0313 kg/ha) | Preemergence herbicidal rating AMBEL (AMBEL (Ragweed, Common); rate 0.2500 kg/ha) | Preemergence herbicidal rating ZEAMX (ZEAMX (Corn, Field) [5]; rate 0.2500 kg/ha)
0.0: herbicidal rating CASOB (CASOB (Sicklepod); rate 0.0156 kg/ha) | herbicidal rating CASOB (CASOB (Sicklepod); rate 0.0313 kg/ha) | herbicidal rating GALAP (GALAP (Galium); rate 0.0156 kg/ha) | herbicidal rating GALAP (GALAP (Galium); rate 0.0313 kg/ha) | herbicidal rating GALAP (GALAP (Galium); rate 0.0625 kg/ha) | Preemergence herbicidal rating AMBEL (AMBEL (Ragweed, Common); rate 0.0625 kg/ha) | Preemergence herbicidal rating AMBEL (AMBEL (Ragweed, Common); rate 0.1250 kg/ha) | Preemergence herbicidal rating IPOHE ([3]; rate 0.0625 kg/ha) | Preemergence herbicidal rating ORYSAT (ORYSAT (Rice, Tebonnet); rate 0.0625 kg/ha) | Preemergence herbicidal rating ORYSAT (ORYSAT (Rice, Tebonnet); rate 0.1250 kg/ha) | Preemergence herbicidal rating ORYSAT (ORYSAT (Rice, Tebonnet); rate 0.2500 kg/ha) | Preemergence herbicidal rating TRZAWR ([4]; rate 0.0625 kg/ha) | Preemergence herbicidal rating TRZAWR ([4]; rate 0.1250 kg/ha) | Preemergence herbicidal rating TRZAWR ([4]; rate 0.2500 kg/ha) | Preemergence herbicidal rating TRZAWR ([4]; rate 0.5000 kg/ha) | Preemergence herbicidal rating ZEAMX (ZEAMX (Corn, Field) [5]; rate 0.0625 kg/ha) | herbicidal effect rating, ECHORC ([6]; 0.0313 kg/ha) | herbicidal effect rating, CYPIR (CYPIR (Rice Flatsedge); 0.0313 kg/ha) | herbicidal effect rating, CYPIR (CYPIR (Rice Flatsedge); 0.0625 kg/ha) | herbicidal effect rating, CYPIR (CYPIR (Rice Flatsedge); 0.1250 kg/ha) | herbicidal effect rating, CYPSE (CYPSE (Flatsedge); 0.0313 kg/ha) | herbicidal effect rating, CYPSE (CYPSE (Flatsedge); 0.0625 kg/ha) | herbicidal effect rating, CYPSE (CYPSE (Flatsedge); 0.1250 kg/ha) | herbicidal effect rating, CYPSE (CYPSE (Flatsedge); 0.2500 kg/ha)
6.0: herbicidal effect rating, ECHORC ([6]; 0.1250 kg/ha)
6.5: herbicidal rating ZEAMX (ZEAMX (Corn, Field) [1]; rate 0.1250 kg/ha)
9.0: Preemergence herbicidal rating CHEAL ([2]; rate 0.0625 kg/ha) | Preemergence herbicidal rating CHEAL ([2]; rate 0.1250 kg/ha) | Preemergence herbicidal rating CHEAL ([2]; rate 0.2500 kg/ha) | Preemergence herbicidal rating CHEAL ([2]; rate 0.5000 kg/ha) | Preemergence herbicidal rating IPOHE ([3]; rate 0.5000 kg/ha)
8.0: Preemergence herbicidal rating ZEAMX (ZEAMX (Corn, Field) [5]; rate 0.5000 kg/ha)
7.0: herbicidal effect rating, ECHORC ([6]; 0.2500 kg/ha)
